In US20120165230A1, “BIOLOGICALLY PRODUCED CYCLIC AFFINITY TAGS” (LanthioPep B.V., priority 2009, published 2012):

Test system: L. lactis MG1363
Assay: Antimicrobial activity: growth inhibition in two-fold dilution series in microwell plate, OD600 after 6 hours
Type: cell-based, Lactococcus lactis
Conditions: supernatant treated with trypsin to cleave off leader, two-fold dilutions
Procedure: FIG. 2. Antimicrobial activity of a truncated nisin mutant containing HPQF (SEQ ID NO:7) in ring C. Lactococcus lactis containing a first plasmid encoding NisB, NisT and NisC and a second plasmid encoding […] (SEQ ID NO:44) was induced. The supernatant was treated with trypsin to cleave off the leader peptide. Series of two-fold dilutions were made in a microwell plate and the peptide's capacity to inhibit the growth of L. lactis MG1363 was tested by measuring OD 600 after six hours of incubation. ∘: control with PBS, ▪: truncated nisin mutant, ▾: supernatant of nisin A-producing L. lactis NZ9700.
The leader was cleaved off with trypsin and the antimicrobial activity was measured as follows: In a microwell plate, 200 μl of supernatant of nisin fusion strain and in other wells, 200 μl of control (positive, e.g., filtered sup of NZ9700 and negative) solutions was added to the wells of the first column. 100 μl medium was added to the remaining empty wells. For each row, 100 μl from the first column was added to the second and, after mixing, from the second to the third, etc., leading to two-fold dilution steps. 100 μl of sensitive strain. MG1363 was added to all wells at low density, OD600: 0.05-0.1. After 6 hours, OD600 was measured.

ITSISLCTPGCKTHPQFCNMKEQKLISEED [H14, P15, Q16, F17, ΔG18 mutant of nisin (1-22) with internal strep-tag, coupled to external myc-tag EQKLISEED]
antimicrobial activity (inhibition of growth of L. lactis MG1363) (FIG. 2): clearly has antimicrobial activity
antimicrobial activity (inhibition of growth of L. lactis MG1363) (FIG. 2, listed as truncated nisin mutant): still has activity
